Key:
[1] = test system: HCC1954 cells; test: Cell viability CellTiter-Glo, HCC1954; format: cell-based; settings: unconjugated payload of the ADC
[2] = test system: N87 cells; test: Cell viability CellTiter-Glo, N87; format: cell-based, human; settings: unconjugated payload of the ADC
[3] = target: T1, SF3b complex (Homo sapiens, UniProt O75533+Q7RTV0); test: SF3B1 binding / scintillation proximity assay (SPA); settings: payload of the ADC; read-out: SPA-AT S GMean IC50 (nM) SF381 (WT) HELA.2
T1 construct: The beads were suspended and added to the prepared nuclear extracts

[4] = test system: MCF7 cells; test: Cell viability CellTiter-Glo, HER2-negative MCF7; settings: unconjugated payload of the ADC
[5] = test system: THP1.1; test: Payload cell potency and lethality CTGlo 72 h, THP1.1; format: cell-based; settings: payload
[6] = test system: Caco-2 cells; test: Caco-2 permeability of ADC payload; format: in vitro ADME
Procedure: (§1) Integrity of cell monolayer was confirmed by TEER (transepithelial electrical resistance) and Lucifer yellow. Payloads were spiked in duplicate at 10 μM, separately, on both sides of the cell monolayer. Permeability rates from the apical to basolateral (A-B) direction and the basolateral to apical (B-A) direction were determined by sampling aliquots from both chambers immediately after treatment (t=0) and following incubation for 2 hours. Samples were protein precipitated with organic solvent containing internal standard and analyzed by LC-MS/MS (SCIEX; API 5500). The area ratio responses of payload/internal standard over time in both directions were used to generate permeability (cm/see) values. Efflux ratio was calculated by dividing B-A/A-B. Control compounds for low and high permeability and efflux behaved as expected.

[7] = Caco-2 permeability of ADC payload; format: in vitro ADME; settings: human, Caco-2; payload, B-A/A-B; read-out: Eflux ratio
Procedure: as §1

[8] = Chemical stability of ADC payload, pH 5.5 buffer; settings: Table 26; corresponding payload, pH 5.5, 37C, t1/2
[9] = test system: Ad2.2 pre-mRNA splicing; test: In vitro splicing (IVS) RT-qPCR, Ad2.2 pre-mRNA, HeLa nuclear extract; format: biochemical; settings: payload of the ADC; read-out: qPCR-IVS-AT S GMean IC50 (nM) Ad2.2 HELA.2
Procedure: To evaluate payload activity in a cell-free system, an in vitro splicing assay was performed. The payloads were incubated with nuclear extracts and pre-mRNA substrate minigenes.
HeLa nuclear extract preparation: HeLa S3 cell pellets were resuspended in hypotonic buffer (10 mM HEPES pH 7.9, 1.5 mM MgCl2, 10 mM KCl, 0.2 mM PMSF, 0.5 mM DTT) and the suspension was brought up to a total of 5 packed cell volume (PCV). After centrifugation, the supernatant was discarded, and the cells were brought up to 3 PCV with hypotonic buffer and incubated on ice for 10 min. Cells were lysed using a dounce homogenizer and then centrifuged. […]. The nuclei were gently mixed for 30 min before centrifuging. The supernatant (nuclear extract) was then dialyzed into storage buffer (20 mM HEPES pH 7.9, 100 mM KCl, 0.2 mM EDTA, 20% glycerol, 0.2 mM PMSF, 0.5 mM DTT). Protein concentration was determined using NanoDrop 8000 UV-Vis spectrophotometer (ThermoFisher Scientific).
IVS: All Ad2-derived sequences (Pellizzoni et al. (1998) Cell 95(5):615-24) were cloned into pcDNA3.1(+) vector (Promega) using 5′ EcoRI and 3′ Xbal restriction sites. The plasmids were linearized using Xbal and used as DNA templates in in vitro transcription reactions. The FtzΔi intron-less plasmid (Luo and Reed (1999) 96(26):14937-42) was linearized using EcoRI. All RNAs were in vitro transcribed and then purified using MEGAScript T7 (Invitrogen) and MegaClear (Invitrogen) kits, respectively. For splicing reactions using Ad2 variant pre-mRNAs, 1 μL reactions were prepared using 8 μg nuclear extracts prepared from HeLa S3, 2 ng pre-mRNA, 0.2 ng FTZΔi, and varying concentrations of compounds or DMSO. After a 15 min pre-incubation at 30° C., 1 μL splicing activation buffer (0.5 mM ATP, 20 mM creatine phosphate, 1.6 mM MgCl2) was added, and the reactions were incubated for 90 min at 30° C. The reactions were then quenched with 13 μL DMSO, and 25 nL was used for RT-qPCR. RT-qPCR reactions were prepared using TaqMan RNA-to-CT 1-step kit (Life Technologies), RNA from splicing reactions, Ad2 (forward: […]; reverse: […]; probe: […]) and Ftz (forward: […]; reverse: […]; probe: […]) mRNA primer-probe sets. Prism 7 (Graphpad) was used for non-linear regression curve fitting of the formed spliced product and normalized to the control (DMSO) sample. […] In the presence of payload, a decrease in the amount of spliced product was observed.

[10] = test system: MOLP8 cells; test: Cell viability, CD138-expressing MOLP8; format: cell-based; settings: unconjugated payload of the ADC
[11] = test system: Ad2.1 pre-mRNA splicing; test: In vitro splicing (IVS) RT-qPCR, Ad2.1 pre-mRNA, HeLa nuclear extract; format: biochemical; settings: payload of the ADC; read-out: qPCR-IVS-AT S Gmean IC50 (nm) Ad2.1 HELA.2
[12] = test system: TAOK1 (neojunction transcript); test: In vivo PD RT-qPCR in NCI-N87 tumors, TAOK1; set-up: species or system mouse; settings: 10 mg/kg IV single dose
[13] = test system: FBXW5 (mature mRNA transcript); test: In vivo PD RT-qPCR in NCI-N87 tumors, FBXW5; set-up: species or system mouse; settings: 10 mg/kg IV single dose

SMILES | Payload LD50 [1] [nM] | Payload Rmin (%) [1] [%] | Payload LD50 [2] [nM] | IC50 [3] [nM] | Payload LD50 [4] [nM] | Payload Rmin (%) [4] [%] | CTGlo-AT S GMean LD50 (nM) 72 h THP1.1 [5] [nM] | Permeability Caco-2 A-B (10e-6 cm/s) ([6]; Table 26, corresponding payload, A-B) | permeability (in words) ([6]; payload) | efflux ratio at 2 h, 10 μM [7] | pH 5.5 Stability (t1/2, 37C) [8] | IC50 [9] [nM] | LD50 (nM) (payload) [10] | Rmin (%) (payload) [10] | IC50 [11] [nM] | TAOK1 neojunction transcript in tumors [12] | FBXW5 mature mRNA transcript in tumors [13]
CC[C@H](O)[C@@H](C)[C@H]1O[C@@H]1C[C@@](C)(O)/C=C/C=C(\C)[C@H]1OC(=O)C[C@H](O)CC[C@@](C)(OC)[C@@H](OC(=O)N2CCN(CCCC(=O)O)CC2)/C=C/[C@@H]1C [D25] | >200 | 26.882 | >200 | 14.6 | >200 | 65.639 | 2076.811 | 0.14 10e-6 cm/s | poorly permeable | 2.55 | 3.4 | 50.9 | >400 | 5.94 | 244 | – | –
CC[C@H](O)[C@@H](C)C1OC1C[C@@](C)(O)/C=C/C=C(\C)[C@H]1OC(=O)C[C@H](O)CC[C@@](C)(OC)[C@@H](OC(=O)N2CCN(CCN3C(=O)C=CC3=O)CC2)/C=C/[C@@H]1C (stereo in doubt) [ADL14-D1, (2S,3S,6S,7R,10R,E)-10-hydroxy-2-((R,2E,4E)-6-hydroxy-7-((2S,3S)-3-((2R,3S)-3-hydroxypentan-2-yl)oxiran-2-yl)-6-methylhepta-2,4-dien-2-yl)-7-methoxy-3,7-dimethyl-12-oxooxacyclododec-4-en-6-yl 4-(2-(2,5-dioxo-2,5-dihydro-1 H-pyrrol-1-yl)ethyl)piperazine-1-carboxylate] | – | – | – | – | – | – | – | – | – | – | – | – | – | – | – | did not exhibit statistically significant changes | did not exhibit statistically significant changes
